Patent US20230067910A1, “NOVEL COMPOUNDS FOR THE DIAGNOSIS, TREATMENT AND PREVENTION OF DISEASES ASSOCIATED WITH THE AGGREGATION OF ALPHA-SYNUCLEIN” (MODAG GMBH, priority 2019, published 2023)
Like-named read-outs stand apart in the source and are kept apart here.

Assays:
[1] = biological target: T1, alpha-synuclein (sonicated fibrils) (Homo sapiens, UniProt P37840); assay: Modified competition binding assay, protocol 3b, reference ligand [3H]-compound 2; conditions: Table 5, reference ligand [3H]-compound 2 (1 nM)
T1 construct: made in house; host or cells: E. coli
Description: (§1) Alpha-synuclein and tau46 were purified from E. coli according to established protocols (Nuscher B, et al., J. Biol. Chem., 2004; 279(21):21966-75), Aβ1-42 was obtained from rPeptide, Watkinsville, Ga., USA. Fibrils were prepared by aggregation of recombinant protein via constant agitation. In detail, 70 μM of alpha-synuclein mixed with 100 mM NaCl in 50 mM Tris, pH 7.0+0.02% NaN3 were incubated at 1,400 rpm, 37° C. for 96 h. 10 μM of tau46 were incubated with 0.03 mg/ml heparin in 50 mM Tris, pH=7.0 at 1,000 rpm, 37° C. for 72 h. Aβ1-42 was solved in 20 mM NaPi, pH=8.0+0.2 mM EDTA+0.02% NaN3 (Deeg A A, et al., Biochim. Biophys. Acta, 2015; 1850(9): 1884-90; Goedert M, et al. Nature, 1996; 383(6600): 550-3).
For competition binding experiments, a fixed concentration of recombinant αSYN fibrils (sonicated, 15 nM/well) was incubated with 1 nM [^3H]-compound 1 or [3H]-compound 2 and decreasing concentrations of a serial dilution of non-labeled competitor (serial dilution 1:4 or 1:3.5 or 1:3 providing the concentration ranges of non-labeled competitor 1 μM-[…] 1 μM-4 nM or 1 μM-[…], respectively) in 30 mM Tris-HCl, 10% ethanol, 0.05% Tween20, pH 7.4 in a total volume of 200 μL/well. Plates were incubated for 4.5 hours at RT covered by removable sealing tape (PerkinElmer, Waltham, Mass., USA).
Filtration and readout were performed as described for saturation binding assays. [^3H]-labeled ligand binding [in CMP] was plotted against increasing competitor concentrations and data points were fitted using non-linear regression analysis to calculate the IC50 and Ki values (GraphPad Software, Inc., Version 7.03, La Jolla (Calif.), USA). In the competition binding assay with sonicated recombinant αSYN fibrils, the calculation of Ki values was done based on KD values of 0.6 nM and 0.2 nM for compound 1 and compound 2, respectively.
(§2) The fibril competition assay provides Ki values. Ki is a quantitative measure that represents the concentration of the non-radioactive tested compound (competitor ligand) required to replace 50% of a reference compound, in this case [H]-compound 1 (1 nM) or [H]-compound 2 (1 nM), which is bound to the target structures (1 nM), in our case recombinant alpha-synuclein and tau46 fibrils. This assay is suitable for a screening of non-radioactive ligands.

[2] = system: H4 cells overexpressing alpha-synuclein hemi-Venus fusion constructs (V1S+SV2); assay: Cellular model of aggregated alpha-synuclein-dependent toxicity, V1S+SV2 H4 cells; type: cell-based; conditions: 10 μM compound, 100 μM FeCl3, 0.75% DMSO, 48 h; for inhibition at 10 µM: read-out: Change in fraction of condensed nuclei (rel. to DMSO control) [%]
Description: (§3) To identify potential therapeutically useful effects, compounds were tested in two cellular models of aggregated alpha-synuclein-dependent toxicity in H4 cells. These cellular models allow for the inducible overexpression of alpha-synuclein hemi-Venus fusion constructs (V1S+SV2) or full-length alpha-synuclein (the model is described in detail in: Bartels M, Weckbecker D, Kuhn P H, Ryazanov S, Leonov A, Griesinger C, Lichtenthaler S F, Bötzel K, Giese A: Iron-mediated aggregation and toxicity in a novel neuronal cell culture model with inducible alpha-synuclein expression, Sci. Rep. 2019 Jun. 24; 9(1):9100). Moreover, addition of DMSO and FeCl3 promotes the aggregation of alpha-synuclein which is associated with an increase in cytotoxicity. The cell culture assay uses these effects by determining the change in the number of cells and the change in the percentage of condensed nuclei, which is indicative of apoptosis, in order to obtain information on which compounds show the most promising effects and thus might be therapeutically useful.
(§4) In these experiments, cells were incubated with 100 μM FeCl3 and 0.75% DMSO in the presence of 10 μM anle138c as a positive control, compounds 1 to 19 (10 μM), or DMSO as a negative control. After 48 h, the cells were imaged with an OPERA high-throughput imaging system and analyzed using Acapella software (Perkin Elmer). […] A reduction in the fraction of condensed nuclei (in the absence of a strong reduction in cell number) is indicative of a beneficial therapeutic effect.

[3] = biological target: T2, alpha-synuclein (fibrils) (Homo sapiens, UniProt P37840); assay: Competition binding assay, protocol 3a, reference ligand [3H]-compound 1, alpha-synuclein fibrils; conditions: reference ligand [3H]-compound 1 (1 nM)
T2 construct: made in house; host or cells: E. coli
Description: as §1
A fixed concentration of sonicated human recombinant αSYN (200 nM/well) or tau46 (208 nM/well) fibrils diluted in phosphate buffered saline (PBS) were incubated in low binding plates (96 well micro test plate, Ratiolab GmbH, Dreieich, Germany) together with 1 nM [^3H]-compound 1 and 1:4 serial dilutions of the cold compound of interest starting from 1 μM diluted in 50 mM Tris-base, 10% EtOH, 0.05% Tween20, pH 7.4. For the calculation of Ki values the KD value of compound 1 toward sonicated human recombinant αSYN fibrils was set to 3 nM.
Assay plates were incubated under agitation at 37° C. for 2 h covered by plastic foil (Resealable tape, PerkinElmer, Waltham, Mass., USA). Prior to harvesting, a filter (Printed filtermat B, PerkinElmer, Waltham, Mass., USA) was incubated with 5 mg/mL polyethylenimine (PEI, Poly(ethyleneimine) solution, Sigma Aldrich Chemie GmbH, Taufkirchen, Germany) at 4° C. for 30 min. After incubation, bound and free ligands were separated by vacuum filtration using a harvester (Filtermate harvester, PerkinElmer, Waltham, Mass., USA). The filter was washed three times with buffer cooled to 4° C. and subsequently dried in the microwave for 2 min at medium power. The filter was sealed in a plastic bag (Sample bag for MicroBeta®, PerkinElmer, Waltham, Mass., USA) together with added scintillator (BETAPLATE SCINT, PerkinElmer, Waltham, Mass., USA). Accumulation of tritium was counted in a liquid scintillation counter (Wallac MicroBeta® TriLux, 1450 LSC & Luminescence Counter, PerkinElmer, Waltham, Mass., USA) immediately. Radioactivity was plotted against the increasing tritium-labeled compound or cold compound concentrations. Data points were fitted using nonlinear regression analysis in GraphPad Prism (GraphPad Software, Inc., Version 7.03, La Jolla, Calif., USA).
as §2

[4] = system: H4 cells overexpressing full-length alpha-synuclein; assay: Cellular model of aggregated alpha-synuclein-dependent toxicity, full-length alpha-synuclein H4 cells; type: cell-based; conditions: 10 μM compound, 100 μM FeCl3, 0.75% DMSO, 48 h; for inhibition at 10 µM: read-out: Change in fraction of condensed nuclei (rel. to DMSO control) [%]
Description: as §3, §4

[5] = biological target: T1, alpha-synuclein (sonicated fibrils); assay: Modified competition binding assay, protocol 3b, reference ligand [3H]-compound 1; conditions: reference ligand [3H]-compound 1 (1 nM)
Description: Fibrils were prepared by aggregation of recombinant protein via constant agitation. In detail, 70 μM of alpha-synuclein mixed with 100 mM NaCl in 50 mM Tris, pH 7.0+0.02% NaN3 were incubated at 1,400 rpm, 37° C. for 96 h. 10 μM of tau46 were incubated with 0.03 mg/ml heparin in 50 mM Tris, pH=7.0 at 1,000 rpm, 37° C. for 72 h.
Plates were incubated for 4.5 hours at RT covered by removable sealing tape (PerkinElmer, Waltham, Mass., USA).
Filtration and readout were performed as described for saturation binding assays.
The fibril competition assay provides Ki values. […] This assay is suitable for a screening of non-radioactive ligands.

[6] = Experiment A, read-out: Ki (nM) alpha-synuclein (fibrils)
[7] = Experiment B, read-out: Ki (nM) alpha-synuclein (sonicated fibrils)
[8] = Table 4b, read-out: Ki (nM) alpha-synuclein (sonicated fibrils)
[9] = Table 6 comparison series, read-out: Ki (nM), sonicated alpha-synuclein fibrils

| Compound | Ki [1] [nM] | Change in cell number (rel. to DMSO control) [%] [2] [%] | inhibition at 10 µM [2] [%] | Ki [3, 6] [nM] | Ki [3, 7] [nM] | Change in cell number (rel. to DMSO control) [%] [4] [%] | inhibition at 10 µM [4] [%] | Ki [5, 8] [nM] | Ki [5, 9] [nM] |
| --- | --- | --- | --- | --- | --- | --- | --- | --- | --- |
| CN(C)c1ncc(-c2cc(-c3ccnc(Br)c3)[nH]n2)cn1 [Compound 6, 5-[5-(2-bromopyridin-4-yl)-1H-pyrazol-3-yl]-N,N-dimethylpyrimidin-2-amine] | 8.9 | −34.0 | -53.6 | 24 | > 300 | −31.0 | -5.4 |  |  |
| Brc1cccc(-c2cc(-c3ccc4c(c3)OCO4)n[nH]2)n1 [Compound 15, 2-[3-(1,3-benzodioxol-5-yl)-1H-pyrazol-5-yl]-6-bromopyridine] | 6.6 | −11.3 | -23.1 |  |  | −11.2 | -20.3 | 6.7 |  |
| CNc1ccc(-c2cc(-c3cc(Br)ccn3)[nH]n2)cc1 [Compound 57, 4-[5-(4-bromopyridin-2-yl)-1H-pyrazol-3-yl]-N-methylaniline] | 2.8 |  |  |  |  |  |  | 3.3 |  |
| CNc1ccc(-c2cc(-c3cccc(Br)n3)[nH]n2)cc1 [Compound 58, 4-[5-(6-bromopyridin-2-yl)-1H-pyrazol-3-yl]-N-methylaniline] | 5 |  |  |  |  |  |  | 5.1 |  |
| CNc1ccc(-c2cc(-c3cncc(Br)c3)[nH]n2)cc1 [Compound 56, 4-[5-(5-bromopyridin-3-yl)-1H-pyrazol-3-yl]-N-methylaniline] | 3.3 |  |  |  |  |  |  | 2.6 |  |
| Nc1ccc(-c2cc(-c3ccnc(Br)c3)[nH]n2)cc1 [Compound 7, 4-[5-(2-bromopyridin-4-yl)-1H-pyrazol-3-yl]aniline] |  | −30.8 | 46.1 |  |  | −37.8 | 62.5 |  |  |
| CN(C)c1ncc(-c2cc(-c3ccnc(F)c3)[nH]n2)cn1 [Compound 8, 5-[5-(2-fluoropyridin-4-yl)-1H-pyrazol-3-yl]-N,N-dimethylpyrimidin-2-amine] | 9.9 | −4.5 | -14.2 | 43 |  | −5.7 | -10.7 |  |  |
| CNc1ccc(-c2cc(-c3cccc(Br)c3)[nH]n2)cc1 [Compound 64, reference compound] |  |  |  |  |  |  |  |  | 3.4 |
| Fc1cccc(-c2cc(-c3ccc4c(c3)OCO4)n[nH]2)n1 [Compound 11, 2-[3-(1,3-benzodioxol-5-yl)-1H-pyrazol-5-yl]-6-fluoropyridine] | 7.4 | −17.4 | -123 |  |  | −20.0 | -13.7 |  |  |
| Clc1cc(-c2cc(-c3ccc4c(c3)OCO4)n[nH]2)ccn1 [Compound 14, 4-[3-(1,3-benzodioxol-5-yl)-1H-pyrazol-5-yl]-2-chloropyridine] | 1.3 | −21.9 | -61 |  |  | −32.0 | 47.3 |  |  |
| CN(C)c1ccc(-c2cc(-c3cccc(Br)c3)[nH]n2)cc1 [Compound 65, reference compound] |  |  |  |  |  |  |  |  | 1.9 |
| Brc1ccnc(-c2cc(-c3ccc4c(c3)OCO4)n[nH]2)c1 [Compound 16, 2-[3-(1,3-benzodioxol-5-yl)-1H-pyrazol-5-yl]-4-bromopyridine] | 4.7 | −40.2 | -56.8 |  |  | −47.1 | -0.8 | 5.2 |  |
| Brc1cccc(-c2cc(-c3cc4c(cn3)OCO4)n[nH]2)c1 [Compound 20, 6-[3-(3-bromophenyl)-1H-pyrazol-5-yl]-1,3-dioxolo[4,5-c]pyridine] | 5.5 |  |  |  |  |  |  | 3.1 |  |
| Fc1cncc(-c2cc(-c3ccc4c(c3)OCO4)n[nH]2)c1 [Compound 13, 3-[3-(1,3-benzodioxol-5-yl)-1H-pyrazol-5-yl]-5-fluoropyridine] | 189 | −6.1 | -46 |  |  | −18.1 | 55.5 |  |  |
| Cn1nc(-c2ccnc(Br)c2)cc1-c1ccc2c(c1)OCO2 [Compound 19, 4-[5-(1,3-benzodioxol-5-yl)-1-methyl-1H-pyrazol-3-yl]-2-bromopyridine] |  | −5.7 | -3.2 |  |  | −30.3 | 13.2 |  |  |
| CN(C)c1ncc(-c2cc(-c3cccc(Br)c3)[nH]n2)cn1 [Compound 5, 5-[5-(3-bromophenyl)-1H-pyrazol-3-yl]-N,N-dimethylpyrimidin-2-amine] | 13 | −12.4 | 27.3 | 27 | > 60 | −14.6 | 34.2 |  |  |
